In paper PMC4608580, “Synthesis and Evaluation of Biological Activity of Antimicrobial – Pro-Proliferative Peptide Conjugates” (PLoS ONE, 2015):

Assays:
[1] = Circular dichroism, alpha-helical content; type: physicochemical; conditions: CD, mean residue ellipticity at 222 nm (Eq 1), peptide 0.4 mg/ml in 30 mM SDS, room temperature
Protocol: Circullar dichroism spectra of analyzed compounds were recorded on a Jasco J-815 spectropolarimeter using a quartz cell of 1 mm path length between 195–260 nm at room temperature. Peptides at concentration of 0.4 mg/ml were dissolved in water or 30 mM SDS solution. SDS micelle system was used as the simplified model of negatively charged lipid membrane. On the basis of the obtained results the alpha-helical content was determined from the mean residue ellipticities at 222 nm according to Eq 1: %Helix=([θ]obs/([θ]helixx(1−2.57/l))x100, (1) where [θ] obs is the experimentally observed mean-residue ellipticity at 222 nm, [θ]helix is the theoretical ellipticity of peptide of infinite length with a 100% helix population, taken as -39 500 deg·cm^2/dmol, and l is the number of peptide bonds.
Circular dichroism method was applied to obtain a basic information about the secondary structure of the synthesized compounds (with the exception of CAR, CAR3, DAL, CTEN2) in two chemical environments, water and 30 mM SDS. As expected, all the tested compounds in water adopted a random-coil structure, while in the presence of 30 mM SDS most of them formed α-helices with characteristic negative minima around 208 and 220 nm. […] The examples of CD spectra for selected peptides could be seen in supporting information (Figure A in S1 File). On the basis of the experimentally obtained values of the mean residue ellipticities of peptides at 222 nm their alpha-helical content was calculated according to the Eq 1 (Table 1).

[2] = tested on: human primary dermal fibroblasts; experiment: Cell migration assay (in vitro scratch test); type: cell-based; conditions: 25 μg/mL, 24 h
Protocol: Biopsies of healthy human skin were obtained aseptically from three donors (47–69 years old) undergoing circumcision after obtaining their written informed consent. All the procedures were approved by the Ethics Committee of Medical University of Gdansk (NKEBN/483/2011. Issued: 2011-12-19). The samples were washed several times with sterile PBS (Sigma-Aldrich, Germany) containing antibiotic (200 U/mL penicillin and 200 μg/mL streptomycin), after which, the subcutaneous tissue was cut off with a sharp blade. The resulting sheets were cut into small fragments, washed two times with sterile PBS and treated with 6 U/mL dispase II (BD, USA) overnight at 4°C to separate epidermis and dermis. The dermis was then digested with 1.0 mg/mL collagenase type I (from Clostridium histolyticum Sigma-Aldrich, Germany) for 2 hours at 37°C to isolate fibroblasts. Cells were used between the 2nd and 4th passage in all experiments.
Fibroblasts and keratinocytes were seeded (5x10^5 cells/well) in 6-well plates. When desired monolayer confluence was reached, cells were starved for 24 hours in serum-free DMEM. The monolayer was scratched then with 200μL-pipette tip. […] The wounded areas were then photographed by means of Zeiss Observer D1 microscope equipped with camera AxioCam and analyzed with AxioVision software (Carl Zeiss, Germany). Migration activity of the cells treated with the tested peptides were expressed as the percentage of the wounded area with respect to the control probe (cell cultures without any of the peptide), assumed as 100%.
An in vitro scratch test was performed to investigate the effect of the analyzed compounds on keratinocytes and fibroblasts migration. […]
Fig 2 Effect of the peptides on HaCaT keratinocytes and fibroblasts cell migration in the in vitro scratch test. […] Migration was analyzed after 24 hours by means of Zeiss Observer D1 microscope, wounding areas were analyzed with AxioVision software and expressed as the percentage of the wound width in comparison to the control sample (cells incubated in DMEM without FCS). […]

In the case of “IKKILSKIKKLL-NH2 [DK5, Lys-rich derivative of amphibian AMP temporin-1CEb, …-NH2, reference compound]”, the α-helicity [1] is reported as 29% and the “Inhibitory effect on fibroblast migration in comparison to the control” value ([2]; scratch test) is reported as about 50%.
In the case of “YAGFLR-PEG-IKKILSKIKKLL-NH2 [DAL-PEG-DK5, conjugate of dalargin and DK5 joined by PEG-linker]”, the α-helicity [1] is reported as 35% and the “Effect on fibroblast migration (scratch test), in words” value ([2]; serum-free DMEM, Mitomycin C 5 μg/mL, vs. control without peptide, three independent experiments) is reported as “neutral or slightly stimulative”.
Substance “YAGFLR-PEG-IKKILSKIKKLLK-NH2 [DAL-PEG-LK6, conjugate of dalargin and LK6 joined by PEG-linker]” has a α-helicity [1] of 25%.
